Test results taken from publication PMC8649774, “A New Class of Cell Wall-Recycling L,D-Carboxypeptidase Determines β-Lactam Susceptibility and Morphogenesis in Acinetobacter baumannii” (mBio, 2021).

Biological target: T1, ElsL (ElsLHis) (Acinetobacter baumannii, UniProt A0ABX6CN83)
T1 construct: gene FQU82_03167; leaderless cytoplasmic YkuD-domain protein, C-terminal 6xHis (pET28b), expressed in E. coli BL21(DE3), Ni-NTA purified with TCEP
Assay: UPLC-MS of reaction products
Format: biochemical
Conditions: 100 mM Tris-HCl, 37 °C, 2 h, 10 ng enzyme; M4 purified from Caulobacter crescentus sacculi

## CC(=O)N[C@H]1[C@H](O[C@H]2[C@H](O[C@H](C)C(=O)N[C@@H](C)C(=O)N[C@H](CCC(=O)N[C@@H](CCC[C@@H](N)C(=O)O)C(=O)N[C@H](C)C(=O)O)C(=O)O)[C@@H](NC(C)=O)C(O)O[C@@H]2CO)O[C@H](CO)[C@@H](O)[C@@H]1O (stereo partly shown) [M4, murotetrapeptide]
  UPLC-MS of reaction products: ElsL completely cleaved the M4 substrate to the disaccharide tripeptide (M3)
